In patent publication US20130101628A1 (NORTHWESTERN UNIVERSITY, priority 2011, published 2013):
Where two headings read alike, the source gives them in different places. * marks the point of attachment. Palmitoyl = CCCCCCCCCCCCCCCC(=O)*

Columns and labels:
[1] = test system: HUVECs; experiment: HUVEC proliferation (CyQUANT-NF cell number); format: cell-based, human; conditions: 1 μM in EGM, 48 hours; untreated control 100.0%
Description: In vitro studies were performed using HUVECs, a primary endothelial cell that is VEGF-responsive and frequently used as a model endothelial cell for angiogenesis studies in vitro [31].
To evaluate proliferation, HUVECs were plated at 5000 per well in a 96 well plate. […] Additionally, unsupplemented growth media was used as a control. After 48 hours, cell number was quantified using CyQUANT-NF (Invitrogen) and a standard fluorescent microplate reader. Cell number is expressed relative to the group treated with unsupplemented growth media.

[2] = test system: ischemic hind-limb; experiment: Murine hind-limb ischemia (HLI) model; format: in vivo, mice; conditions: for limb motor function score / tissue (limb) salvage score: single i.m. injection 25 μl of 2 mM; for limb motor function score: grade 1-5; for tissue (limb) salvage score: grade 1-6
Description: For the HLI procedure, eight week old male FVB wild-type mice (Charles River) were anesthetized by intraperitoneal injection of avertin (125 mg/kg). By means of a dissecting microscope, the femoral nerve was carefully separated from the vessel bundle. The right femoral artery was ligated and excised, including all superficial and deep branches. Critical limb ischemia was immediately verified by laser Doppler imaging (LDPI, MoorLDI-SIM, Moor Instruments, Ltd) to ensure the ratio (ischemic/non-ischemic limb) was ≦0.20. At postoperative day 3, outliers with low ischemia were triaged based on LDPI (ratio ischemic/nonischemic 0.30) as were outliers with extreme ischemia (necrotic demarcation of entire limb), determined by macroscopic evaluation. […] For follow-up, animals underwent reevaluations with LDPI at postoperative day 7, 14, and 28 before animals were sacrificed (CO, asphyxia) for tissue harvest at day 28. At each time-point, tissue perfusion was measured via LDPI, measuring blood flow in both the ischemic and non-ischemic limb and reporting results as the ratio of these two measurements. All LDPI measurements were taken on a 37° C. heating pad to control body temperature. In addition, motor function and tissue damage was semi-quantitatively assessed on post-operative day 7, 14, 21 and 28 by established scoring systems. Tissue damage in the ischemic limb (limb salvage score) was graded as full recovery (grade 6), minor necrosis or nail loss (grade 5), partial toe amputation (grade 4), total toe amputation (grade 3), partial/total foot amputation (grade 2) or partial/total limb amputation (grade 1) (modified from). Limb motor function was graded as unrestricted (grade 5), no active use of toe(s) or spreading (grade 4), restricted foot use (grade 3), no use of foot (grade 2) or no use of limb at all (grade 1) (modified from). Finally, walking capacity was measured via a Rota Rod apparatus. […] The mean of two assessments was used as for failure time for each animal. At day 28, muscle tissue from the ischemic limb was harvested, fixed in methanol, paraffin-embedded, and cross-sectioned (6-μm) for histological immunostaining. Briefly, sections were blocked with 10% donkey serum (30 min, RT). Primary antibodies were diluted in PBS containing BSA, and applied to tissue slices for 2 hrs at 37° C. Sections were stained for CD31, an endothelial-specific marker, using rat anti-CD31 antibodies (BD Pharmingen Inc) and smooth-muscle α-actin (αSMA), a vascular smooth muscle marker, using rabbit-anti-αSMA (Sigma-Aldrich Co.). For immunofluorescent detection, primary antibodies were resolved with Alexa-Fluor-conjugated secondary antibodies (Invitrogen Corporation, Carlsbad, Calif., USA dilution) and nuclei were counterstained with DAPI (Research Organics). Slides were imaged using fluorescent microscopy (Zeiss), and CD31+capillary forms and CD31+/sMA+]mature microvessels/arterioles were quantified in 3 separate high-power fields (20×) from 3 independent sections in each animal (9 images/animal). All error bars indicate the standard error of the mean. Differences between groups were determined using a one-way analysis of variance (ANOVA) with a Bonferroni multiple comparisons post-hoc test using GraphPad InStat v3.0b. […] VEGF-PA or control treatments were administered by an intramuscular injection three days following the induction of critical ischemia by ligation and excision of the right femoral artery and all superficial and deep branches, as described above. Animals were assessed serially throughout the study for motor function and limb salvage and Laser Doppler perfusion imaging (LDPI) was used to assess tissue perfusion. At the end of the study, exercise endurance was recorded on a Rota Rod treadmill and tissue was harvested for immunohistological staining of capillaries to observe effects on the microcirculation.

[3] = target: T1, VEGF receptor 2 (VEGFR2 or KDR) (Homo sapiens, UniProt P35968); experiment: Sandwich ELISA of phosphorylated VEGFR2 in lysates of stimulated HUVEC; format: cell-based
T1 construct: host or cells: HUVEC
T1 sequence (P35968 20-1356): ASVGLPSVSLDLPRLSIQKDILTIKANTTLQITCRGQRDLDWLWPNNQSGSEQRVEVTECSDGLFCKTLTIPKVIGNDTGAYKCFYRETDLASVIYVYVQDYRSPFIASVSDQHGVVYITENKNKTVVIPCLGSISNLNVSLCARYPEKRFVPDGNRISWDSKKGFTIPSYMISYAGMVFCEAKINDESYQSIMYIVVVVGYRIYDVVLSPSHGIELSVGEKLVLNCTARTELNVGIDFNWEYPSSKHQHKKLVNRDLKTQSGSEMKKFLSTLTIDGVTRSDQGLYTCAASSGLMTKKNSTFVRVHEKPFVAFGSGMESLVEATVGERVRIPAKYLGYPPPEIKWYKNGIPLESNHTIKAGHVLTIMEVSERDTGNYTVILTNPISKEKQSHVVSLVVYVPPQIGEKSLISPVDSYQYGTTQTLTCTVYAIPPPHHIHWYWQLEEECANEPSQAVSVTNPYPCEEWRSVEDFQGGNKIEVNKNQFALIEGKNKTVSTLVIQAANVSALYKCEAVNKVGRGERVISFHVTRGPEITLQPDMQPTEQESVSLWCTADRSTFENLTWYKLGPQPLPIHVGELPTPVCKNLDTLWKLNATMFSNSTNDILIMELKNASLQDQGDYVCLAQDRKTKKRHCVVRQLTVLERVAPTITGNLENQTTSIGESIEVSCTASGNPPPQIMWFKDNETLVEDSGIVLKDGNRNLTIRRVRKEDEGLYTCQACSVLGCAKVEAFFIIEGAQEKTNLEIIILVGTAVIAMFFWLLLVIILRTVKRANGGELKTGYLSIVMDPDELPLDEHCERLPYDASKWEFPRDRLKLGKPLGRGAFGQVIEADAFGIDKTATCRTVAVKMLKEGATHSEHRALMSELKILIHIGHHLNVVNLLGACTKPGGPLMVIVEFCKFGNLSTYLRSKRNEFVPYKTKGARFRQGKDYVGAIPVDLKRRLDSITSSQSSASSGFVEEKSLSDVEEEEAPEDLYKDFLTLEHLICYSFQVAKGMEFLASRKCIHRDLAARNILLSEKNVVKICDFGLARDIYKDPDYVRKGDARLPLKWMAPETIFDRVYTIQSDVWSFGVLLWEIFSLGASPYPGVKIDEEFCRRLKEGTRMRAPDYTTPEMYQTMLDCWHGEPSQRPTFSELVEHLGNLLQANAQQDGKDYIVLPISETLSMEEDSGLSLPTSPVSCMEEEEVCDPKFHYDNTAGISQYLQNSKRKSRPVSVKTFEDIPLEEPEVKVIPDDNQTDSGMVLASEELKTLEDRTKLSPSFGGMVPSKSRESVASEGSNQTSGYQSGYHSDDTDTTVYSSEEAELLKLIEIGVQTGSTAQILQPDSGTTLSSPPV
Description: (§1) Human umbilical vein endothelial cells (HUVECs) and complete endothelial cell growth media (EGM) were purchased (Genlantis, San Diego, Calif.), passaged two times following receipt, and cryo-preserved in media with 5% DMSO. Cells were thawed as needed and grown to confluence in a […] flasks (VWR Falcon) prior to plating for experiments.
(§2) Phosphorylation of both VEGFRI and VEGFR2 was assayed using commercially available assay kit (R&D Systems, Minneapolis, Minn.) following the recommended protocol. First, confluent HUVECs plated in 24 well plates were starved for 5 hours in serum-free defined media (SFDM, Genlantis) specifically designed to maintain cells in a growth factor-free setting for growth factor signaling and metabolic assays. Following starvation, the various treatments were dissolved in SFDM to a concentration of 1 μM. […] Cells were exposed to treatment for 2 minutes. To evaluate the time-course of phosphorylation the same protocol was followed and cells were exposed to VEGF-PA for 0, 1, 3, 5, 10, 15, 20, 25, 30, 40, 50, and 60 minutes.

[4] = test system: chicken chorioallantoic membrane (CAM); experiment: Shell-less chicken chorioallantoic membrane (CAM) angiogenesis assay; format: in vivo; conditions: 2 mM in PBS dried on coverslip, three days following treatment; saline 132%
Text: An established assay reflecting in vivo angiogenesis, the chicken chorioallantoic membrane (CAM) assay, was used to evaluate the angiogenic potential of the VEGF-PA of the present examples. This assay utilizes the extra-embryonic allantois, a tissue derived from the mesoderm that develops into a densely vascularized membrane. A common deviation from the traditional assay is to remove the shell and conduct the assay on a shell-less embryo, termed the shell-less CAM assay, as we have performed here. Fertilized white leghorn chicken eggs (Phil's Fresh Eggs, Forreston, Ill.) were received and cultured in a temperature controlled, humidified egg incubator. On embryonic day 3, eggs were cracked within a sterile tissue culture hood into round 100 mm petri dishes. Fertilized embryos were then transferred to a water-jacketed CO2 incubator, set to 37.5° C., 1% CO2 and 100% relative humidity. On embryonic day 10, the material treatment was dissolved at 2 mM in PBS, evaporated onto the surface of a 5 mm round glass cover slip, and placed facing down on top of the CAM (n=16/group). Digital images were captured through the eyepiece of a Nikon stereomicroscope and vessel density was quantified by the number of intersections of vessel structures with the edge of the cover slip and expressed relative to the initial time-point. Images were captured daily, beginning at embryonic day 10 and culminating on embryonic day 13, the standard range over which the CAM assay is performed. Additionally, images were assessed qualitatively for morphological differences in the CAM vasculature including spoking, branching and leakage.

[5] = test system: HUVECs; experiment: HUVEC migration scratch assay; format: cell-based, human; conditions: 1 μM in EBM with 0.5% FBS, 18 hours; untreated 25.2%
Description: To evaluate cell migration, endothelial basal media (EBM) without growth factors (Lonza) was supplemented with 0.5% FBS in order to prevent apoptosis but not promote significant migration or proliferation. Cells were grown to confluence in a 12 well plate and a 1 ml pipette tip was used to create a denuded scratch and the surface was washed twice with PBS to remove detached cells. The average scratch width at the initial time-point was […] Markings were placed on the underside of the plate to ensure the same region of the scratch was recorded in each image. […] The total pixel area of the scratch at the initial time-point was recorded using ImageJ analysis software, and the percent migration was determined from the reduction in denuded area at 18 hours.

[6] = test system: HUVECs; experiment: HUVEC survival after serum-starvation (Annexin V-PE apoptosis); format: cell-based, human; conditions: 1 μM in EBM, serum-starvation 24 hours; untreated 31.7%
Description: To evaluate cell survival, endothelial basal media (EBM) without growth factors (Lonza) was used to induce a serum-starvation. Cells were plated in 12 well plates and grown to confluence with standard growth media. […] Cells were grown in these conditions for 24 hours. Survival was quantified using Annexin V: PE staining with 7-AAD vital staining (BD Biosciences) following provided assay instructions and analyzed on a DakoCytomation CyAn. Survival was assessed by determining the fraction of cells that were apoptotic (Annexin V-PE positive).

[7] = target: T2, VEGF receptor 1 (VEGFR1 or Flt-1) (Homo sapiens, UniProt P17948); experiment: Sandwich ELISA of phosphorylated VEGFR1 in lysates of stimulated HUVEC; format: cell-based; conditions: HUVEC, native VEGF 100 ng/ml positive control, 2 minutes exposure
T2 construct: host or cells: HUVEC
T2 sequence (P17948 27-1338): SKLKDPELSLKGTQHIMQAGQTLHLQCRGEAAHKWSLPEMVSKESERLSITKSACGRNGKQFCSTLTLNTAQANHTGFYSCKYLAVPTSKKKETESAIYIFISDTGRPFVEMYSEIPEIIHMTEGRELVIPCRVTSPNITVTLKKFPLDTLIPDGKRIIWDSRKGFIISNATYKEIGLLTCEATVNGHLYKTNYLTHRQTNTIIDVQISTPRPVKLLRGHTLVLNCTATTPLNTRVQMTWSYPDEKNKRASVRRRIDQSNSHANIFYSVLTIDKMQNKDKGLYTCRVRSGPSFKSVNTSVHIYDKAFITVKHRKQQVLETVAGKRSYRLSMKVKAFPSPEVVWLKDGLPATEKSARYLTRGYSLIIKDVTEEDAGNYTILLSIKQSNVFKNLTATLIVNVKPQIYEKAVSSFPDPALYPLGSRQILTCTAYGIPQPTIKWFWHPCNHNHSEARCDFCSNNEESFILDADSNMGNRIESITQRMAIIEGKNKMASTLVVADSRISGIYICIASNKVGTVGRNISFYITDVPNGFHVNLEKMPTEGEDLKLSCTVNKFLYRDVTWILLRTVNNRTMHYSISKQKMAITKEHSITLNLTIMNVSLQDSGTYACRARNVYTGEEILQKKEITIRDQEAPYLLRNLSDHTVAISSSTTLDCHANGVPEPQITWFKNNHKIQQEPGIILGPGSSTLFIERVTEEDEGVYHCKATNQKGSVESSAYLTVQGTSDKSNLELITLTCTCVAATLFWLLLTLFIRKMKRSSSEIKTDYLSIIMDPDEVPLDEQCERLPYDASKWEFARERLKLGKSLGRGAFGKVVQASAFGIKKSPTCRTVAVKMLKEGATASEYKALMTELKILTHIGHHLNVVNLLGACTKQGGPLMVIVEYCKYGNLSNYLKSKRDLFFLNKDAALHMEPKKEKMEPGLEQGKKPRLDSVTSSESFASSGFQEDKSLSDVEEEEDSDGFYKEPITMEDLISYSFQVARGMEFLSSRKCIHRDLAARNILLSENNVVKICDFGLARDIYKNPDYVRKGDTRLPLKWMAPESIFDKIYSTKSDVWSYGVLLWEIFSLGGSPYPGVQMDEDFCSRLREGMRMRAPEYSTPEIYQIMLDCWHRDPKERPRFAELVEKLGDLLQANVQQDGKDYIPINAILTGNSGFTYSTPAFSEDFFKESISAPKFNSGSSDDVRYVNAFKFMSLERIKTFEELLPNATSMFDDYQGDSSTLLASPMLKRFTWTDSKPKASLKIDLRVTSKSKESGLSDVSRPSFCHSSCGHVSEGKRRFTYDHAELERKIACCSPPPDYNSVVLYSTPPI
Description: as §1, §2

Row | Substance | proliferation (cell number relative to unsupplemented growth media) [1] | LDPI perfusion ratio (ischemic/non-ischemic limb) ([2]; 14 days after induction of ischemia) | limb motor function score ([2]; day 21) | tissue (limb) salvage score ([2]; day 21) | LDPI perfusion ratio (ischemic/non-ischemic limb) ([2]; day 28) | Rota Rod walking time prior to failure ([2]; day 28, saline 90.4 seconds) [s] | limb motor function score ([2]; day 28) | tissue (limb) salvage score ([2]; day 28) | number of CD31+ capillaries in ischemic limb muscle ([2]; tissue harvested at day 28, saline 893/mm2) | VEGFR2 phosphorylation level relative to untreated control ([3]; HUVEC, 1 μM, 2 minutes exposure, untreated control 1.000±0.109) | blood vessels relative to the initial value [4] | reduction in scratch wound size (denuded area) [5] | fraction of apoptotic cells (Annexin V-PE positive) [6] | VEGFR2 phosphorylation level relative to untreated control [3] | amount of phosphorylated VEGFR1, times untreated control [7]
1 | CH3(CH2)14C(O)—VVAAKKKGKLTAQELVFLKVKGI-NH2 (Palmitoyl-VVAAKKKGKLTAQELVFLKVKGI-NH2; SMILES CCCCCCCCCCCCCCCC(=O)N[C@H](C(=O)N[C@H](C(=O)N[C@@H](C)C(=O)N[C@@H](C)C(=O)N[C@@H](CCCCN)C(=O)N[C@@H](CCCCN)C(=O)N[C@@H](CCCCN)C(=O)NCC(=O)N[C@@H](CCCCN)C(=O)N[C@@H](CC(C)C)C(=O)N[C@H](C(=O)N[C@@H](C)C(=O)N[C@@H](CCC(N)=O)C(=O)N[C@@H](CCC(=O)O)C(=O)N[C@@H](CC(C)C)C(=O)N[C@H](C(=O)N[C@@H](Cc1ccccc1)C(=O)N[C@@H](CC(C)C)C(=O)N[C@@H](CCCCN)C(=O)N[C@H](C(=O)N[C@@H](CCCCN)C(=O)NCC(=O)N[C@H](C(N)=O)[C@@H](C)CC)C(C)C)C(C)C)[C@@H](C)O)C(C)C)C(C)C) [mutant PA] | 101.8%±1.4% | 0.42±0.05 | 2.86±0.14 | 3.14±0.26 | 0.48±0.05 | 106.7 ± 17.6 | 3.29±0.18 | 3.43±0.37 | 954±81 /mm2 | 1.001±0.103 | 149%±8% | 30.0%±7.3% | 24.2%±1.1% |  | 
2 | VEGF |  |  |  |  |  |  |  |  |  |  |  |  |  | 1.311±0.106 | 1.306±0.044
